This is an account of results in patent publication US7012082B2, “Method of correcting HERG channel dysfunction” (priority 2002, dated 2006).

The target in data set [1] is T1, HERG N470D mutant channels (Homo sapiens, UniProt Q12809, N470D).
The next data set has as its target T2, HERG N470D (Homo sapiens, UniProt Q12809, N470D).
T2 construct: expressed in transfected cells
The conditions noted are these: cultured at physiological temperature in low concentrations of drug; earlier publications; cited from earlier work.

For data set [2], the target named is T1, HERG N470D mutant channels. The settings on record: cultured at physiological temperature in low concentrations of drug; earlier publications; cited from earlier work.

As for Sodium-phenylbutyrate [4PBA], the “rescue of N470D current” value in data set [1] was “did not rescue N470D current”. For the compound `COc1cc(N)c(Cl)cc1C(=O)NC1CCN(CCCOc2ccc(F)cc2)CC1OC` (stereo not drawn) [cisapride], the “mature HERG protein band on western blot, N470D cells” value on HERG N470D is reported as “appearance on western blot analysis of the mature HERG protein band”. Moreover, in data set [2], the “HERG current after drug washout, N470D cells (pharmacological rescue)” value is “large amplitude HERG current could be recorded”.
